This test has as its system U87 (Human glioblastoma). In words: U87 glioblastoma subcutaneous xenograft tumor growth, excised tumor weight. The class given is in vivo. As to conditions: for effect on tumor weight versus untreated vehicle: female athymic mice with U87 implants, 10 mg/kg body weight fed, compared with Vehicle 73.8 mg; for Tumor weight: female athymic mice, subcutaneous U87 implants (two per mouse), fed 10 mg/kg body weight, tumors excised and weighed at termination (about one week of treatment), average of six tumors, Vehicle 73.8 mg. The protocol: The effect of the hydrogenated and non-hydrogenated cannabis oil on tumor growth and angiogenesis were evaluated by implanting U87 (Human glioblastoma) 3×10^6 cells (50% matrigel) in […] female athymic mice. The site of implantation was subcutaneous with two implants per mouse. The date of implantation was Feb. 1, 2016 and the date of administering treatment was Feburary 3, 2016. There were three mice in each of the following groups, and the treatment consisted of feeding each of the three mice 10 mg/kg body weight of the treatment corresponding to each one of the following groups: • 1. Untreated Vehicle • 2. THCA • 3. CBDA • 4. HCBDA • 5. HTHCA
The termination date was Feb. 11, 2016. On this date, the tumors were excised and weighed. The results are shown in Table 1 and illustrated in the below plot.
It was assumed that the excised tumor weight for the “Untreated Vehicle” was essentially equivalent to its starting tumor weight.

Turning to `CCCCCc1cc2c(c(O)c1C(=O)O)[C@@H]1C=C(C)CC[C@H]1C(C)(C)O2` [THCA, Δ-9-tetrahydrocannabinoic acid], the “effect on tumor weight versus untreated vehicle” value was “effective to reduce tumor weight” and the “Tumor weight” value is on record as 46.0 mg.
On to `CCCCCc1cc(O)c([C@@H]2CC(C)CC[C@H]2C(C)C)c(O)c1C(=O)O` (some centres unmarked) [HCBDA, hydrogenated 9-cannabidioc acid], for which the “effect on tumor weight versus untreated vehicle” value is given as “effective to reduce tumor weight” and the “Tumor weight” value was 32.6 mg.
For `C=C(C)[C@@H]1CCC(C)=C[C@H]1c1c(O)cc(CCCCC)c(C(=O)O)c1O` [CBDA, Δ-9-cannabidiolic acid], in that order: “effective to reduce tumor weight” and 39.1 mg.
For `CCCCCc1cc2c(c(O)c1C(=O)O)[C@@H]1CC(C)CC[C@H]1C(C)(C)O2` (some centres unmarked) [HTHCA, hydrogenated 9-tetrahydrocannabinoic acid], in that order: “effective to reduce tumor weight” and 44.5 mg.
